Results published in US20250319206A1, “CRISPR/CAS GENE EDITING OF NEH4 AND/OR NEH5 DOMAINS IN NRF2” (Christina Care Gene Editing Institute, Inc., priority 2024, published 2025).

Tested on: NRF2
Experiment: NRF2 western blot in Panc-1 cells
Assay type: cell-based, Human
Settings: edited Panc-1 populations vs unedited, GAPDH loading control
Procedure: Panc-1 cell pellets were collected using a standard RIPA lysis buffer containing protease inhibitor cocktail. Total protein concentration of collected cells was then determined using BCA Protein Assay kit (Pierce, Rockford, IL, USA). The samples were boiled at 95° C. for 10 minutes and then underwent SDS-PAGE on a 10% Mini-PROTEAN TGX Stain-free Protein Gel (BioRad, Cat. 4568033) for 90 min at 100 V. The gel was then transferred to a nitrocellulose membrane using Trans-Blot Turbo Transfer Systems (BioRad, Hercules, CA, USA) with Trans-Blot Turbo RTA Mini 0.2 μm Nitrocellulose Transfer Kit (BioRad Cat. 1704158), mixed molecular weight program, 10 minutes. The blot was placed in 5% milk and blocked at room temperature on shaker for 2 hours. Incubation in primary NRF2 antibody was done overnight at 4° C. on shaker (1:1,000, Abcam ab62352). Membrane was then incubated at room temperature on shaker for 1 hour in NRF2 secondary (1:10,000, Abcam ab205718). The SuperSignal West Dura Extended Duration ECL (Pierce) kit was used on the LI-COR Odyssey FC to visualize bands. […]

sg83: gRNA targeting exon 4 of NRF2; GTAGCCCCTGTTGATTTAGA CGG (guide GTAGCCCCTGTTGATTTAGACGG; listed as DNA, chemistry not given here)
NRF2 protein knock down: significant knockdown of protein
